Numbered stars: 1 amine (or outer) side, 2 acyl side, 3 side chain; on linkers, the order of the positions; unused ones are H or OH. Bridge positions count the residues as written; N and C are the ends. Square brackets hold non-standard residues; d marks the D form. Peptide text beside a SMILES is read from it. * marks the point of attachment. Phe(3-CF3) = N[C@@H](Cc1cccc(C(F)(F)F)c1)C(=O)O; Ala(morpholin-4-yl) = N[C@@H](CN1CCOCC1)C(=O)O; Phe(4-CONH2) = NC(=O)c1ccc(C[C@H](N)C(=O)O)cc1; Phe(4-COOH) = N[C@@H](Cc1ccc(C(=O)O)cc1)C(=O)O; Bip = N[C@@H](Cc1ccc(-c2ccccc2)cc1)C(=O)O; Abu(3R-NH2) = C[C@@H](N)[C@H](N)C(=O)O; Phe(3-Me) = Cc1cccc(C[C@H](N)C(=O)O)c1; Abu(3S-NH2) = C[C@H](N)[C@H](N)C(=O)O; Propanoyl(3,3,3-F3) = O=C(CC(F)(F)F)*; Glutaryl = O=C(CCCC(=O)[*:2])[*:1]; Val(3-OH) = CC(C)(O)[C@H](N)C(=O)O; hPhe = N[C@@H](CCc1ccccc1)C(=O)O; Cha = N[C@@H](CC1CCCCC1)C(=O)O; Suc = O=C(CCC(=O)[*:2])[*:1]; Carboxymethyl = O=C(O)C*; NMeA = CN[C@@H](C)C(=O)O; Orn = NCCC[C@H](N)C(=O)O; Dab = NCC[C@H](N)C(=O)O; Dap = NC[C@H](N)C(=O)O
molecular target: T1, Alexa fluor-647 labeled human PD-L1-Ig binding to Jurkat cell line over-expressing human PD-1 (Homo sapiens, UniProt Q15116); experiment: Jurkat-PD-1 Cell Binding High-Content Screening Assay (CBA): Method 3 (Alexa fluor-647 labeled PD-L1-Ig); conditions: Jurkat-PD-1 cells, Alexa fluor-647 labeled PD-L1-Ig 177 nM; head μM; read-out: CBA Method 3 μM
T1 construct: expressed in transfected cells; host or cells: Jurkat
T1 sequence (Q15116 25-288): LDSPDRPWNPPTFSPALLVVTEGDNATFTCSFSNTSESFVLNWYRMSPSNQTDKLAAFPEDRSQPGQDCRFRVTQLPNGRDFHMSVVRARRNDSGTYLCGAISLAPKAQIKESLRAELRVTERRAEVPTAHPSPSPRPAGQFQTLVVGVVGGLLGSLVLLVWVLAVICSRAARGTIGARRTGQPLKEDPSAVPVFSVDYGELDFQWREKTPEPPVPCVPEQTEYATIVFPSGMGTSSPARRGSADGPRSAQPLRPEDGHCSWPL
Method in brief: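 Readout by high-content imaging of PFA-fixed, Hoechst-stained cells after 1 h with 177 nM (final) Alexa fluor-647 PD-L1-Ig. Compound was added first to hPD-1 Jurkat cells in RPMI plus 10% FCS for 2 h at 37 °C.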

Row | IC50 [µM] | SMILES
1 | 0.16 | Cc1cccc(C[C@@H]2NC(=O)[C@H](CC(=O)O)NC(=O)[C@H](Cc3ccc(OCC(=O)O)cc3)NC(=O)[C@H](CC3CCCCC3)NC(=O)CSC[C@@H](C(=O)N[C@@H](CCN)C(N)=O)NC(=O)[C@H](CCCN)NC(=O)[C@H](C(C)C)NC(=O)[C@H](CCN)NC(=O)[C@H](CCN)NC(=O)[C@@H](CC(C)C)NC(=O)[C@H](C)N(C)C(=O)[C@H](CCC(N)=O)NC(=O)[C@H](Cc3ccc(-c4ccccc4)cc3)NC(=O)[C@H](Cc3ccc(C(=O)O)cc3)NC2=O)c1 [Example 5205] ({CH2CO}-[Cha]Y(Carboxymethyl)D[Phe(3-Me)][Phe(4-COOH)][Bip]Q[NMeA][dL][Dab][Dab]V[Orn]C[Dab]-NH2; thioether N-14)
2 | 0.03 | CC(C)C[C@H]1NC(=O)[C@H](C)N(C)C(=O)[C@H](Cc2ccc(C(=O)O)cc2)NC(=O)[C@H](Cc2ccc(-c3ccccc3)cc2)NC(=O)[C@H](CCc2ccccc2)NC(=O)[C@H](Cc2cccc(C(F)(F)F)c2)NC(=O)[C@H](CC(=O)O)NC(=O)[C@H](Cc2ccc(C(=O)O)cc2)NC(=O)[C@H](CN2CCOCC2)NC(=O)CSC[C@@H](C(=O)N[C@@H](CCN)C(N)=O)NC(=O)[C@H](CNC(=O)CC(F)(F)F)NC(=O)[C@H](C(C)C)NC(=O)[C@H](CC2CCCCC2)NC(=O)[C@H](CCN)NC1=O [Example 5207] ({CH2CO}-[Ala(morpholin-4-yl)][Phe(4-COOH)]D[Phe(3-CF3)][hPhe][Bip][Phe(4-COOH)][NMeA][dL][Dab][Cha]V[Dap](Propanoyl(3,3,3-F3))C[Dab]-NH2; thioether N-14)
3 | 0.02 | CC(C)C[C@H]1NC(=O)[C@H](C)N(C)C(=O)[C@H](Cc2ccc(C(=O)O)cc2)NC(=O)[C@H](Cc2ccc(-c3ccccc3)cc2)NC(=O)[C@H](CCc2ccccc2)NC(=O)[C@H](Cc2cccc(C(F)(F)F)c2)NC(=O)[C@H](CC(=O)O)NC(=O)[C@H](Cc2ccc(C(=O)O)cc2)NC(=O)[C@H](CN2CCOCC2)NC(=O)CSC[C@@H](C(=O)N[C@@H](CCN)C(N)=O)NC(=O)[C@H](CNC(=O)CCCC(=O)O)NC(=O)[C@H](C(C)C)NC(=O)[C@H](CC2CCCCC2)NC(=O)[C@H](CCN)NC1=O [Example 5209] ({CH2CO}-[Ala(morpholin-4-yl)][Phe(4-COOH)]D[Phe(3-CF3)][hPhe][Bip][Phe(4-COOH)][NMeA][dL][Dab][Cha]V[Dap](Glutaryl)C[Dab]-NH2; thioether N-14)
4 | 0.14 | CC(C)C[C@H]1NC(=O)[C@H](C)N(C)C(=O)[C@H](Cc2ccc(C(=O)O)cc2)NC(=O)[C@H](Cc2ccc(-c3ccccc3)cc2)NC(=O)[C@H](CCc2ccccc2)NC(=O)[C@H](Cc2cccc(C(F)(F)F)c2)NC(=O)[C@H](CC(=O)O)NC(=O)[C@H](Cc2ccc(C(=O)O)cc2)NC(=O)[C@H](CN2CCOCC2)NC(=O)CSC[C@@H](C(=O)N[C@@H](CCN)C(N)=O)NC(=O)[C@H](CNC(=O)CCC(=O)O)NC(=O)[C@H](C(C)C)NC(=O)[C@H](CC2CCCCC2)NC(=O)[C@H](CCN)NC1=O [Example 5210] ({CH2CO}-[Ala(morpholin-4-yl)][Phe(4-COOH)]D[Phe(3-CF3)][hPhe][Bip][Phe(4-COOH)][NMeA][dL][Dab][Cha]V[Dap](Suc)C[Dab]-NH2; thioether N-14)
5 | 0.33 | CC(C)C[C@H]1NC(=O)[C@H](C)N(C)C(=O)[C@H](CCC(N)=O)NC(=O)[C@H](Cc2ccc(-c3ccccc3)cc2)NC(=O)[C@H](CCc2ccccc2)NC(=O)[C@H](Cc2cccc(C(F)(F)F)c2)NC(=O)[C@H](CC(=O)O)NC(=O)[C@H](Cc2ccc(OCC(=O)O)cc2)NC(=O)[C@H](CC2CCCCC2)NC(=O)CSC[C@@H](C(=O)N[C@@H](CCN)C(N)=O)NC(=O)[C@H](CCC(=O)O)NC(=O)[C@H](C(C)C)NC(=O)[C@H](CC2CCCCC2)NC(=O)[C@H](CCN)NC1=O [Example 5213] ({CH2CO}-[Cha]Y(Carboxymethyl)D[Phe(3-CF3)][hPhe][Bip]Q[NMeA][dL][Dab][Cha]VEC[Dab]-NH2; thioether N-14)
6 | 0.03 | Cc1cccc(C[C@@H]2NC(=O)[C@H](CC(=O)O)NC(=O)[C@H](Cc3ccc(OCC(=O)O)cc3)NC(=O)[C@H](CC3CCCCC3)NC(=O)CSC[C@@H](C(=O)N[C@@H](CCN)C(N)=O)NC(=O)[C@H](CCC(=O)O)NC(=O)[C@H](C(C)C)NC(=O)[C@H](CC3CCCCC3)NC(=O)[C@H](CCN)NC(=O)[C@@H](CC(C)C)NC(=O)[C@H](C)N(C)C(=O)[C@H](CCC(N)=O)NC(=O)[C@H](Cc3ccc(-c4ccccc4)cc3)NC(=O)[C@H](CCc3ccccc3)NC2=O)c1 [Example 5214] ({CH2CO}-[Cha]Y(Carboxymethyl)D[Phe(3-Me)][hPhe][Bip]Q[NMeA][dL][Dab][Cha]VEC[Dab]-NH2; thioether N-14)

same assay, conditions: Jurkat-PD-1 cells, Alexa fluor-647 labeled PD-L1-Ig 177 nM; nM; read-out: CBA Method 3

Row | IC50 [µM] | SMILES
7 | 0.0065 | CC(C)C[C@H]1NC(=O)[C@H](C)N(C)C(=O)[C@H](Cc2ccc(C(=O)O)cc2)NC(=O)[C@H](Cc2ccc(-c3ccccc3)cc2)NC(=O)[C@H](CCc2ccccc2)NC(=O)[C@H](Cc2cccc(C(F)(F)F)c2)NC(=O)[C@H](CC(=O)O)NC(=O)[C@H](Cc2ccc(C(=O)O)cc2)NC(=O)[C@H](CN2CCOCC2)NC(=O)CSC[C@@H](C(=O)N[C@@H](CCN)C(N)=O)NC(=O)[C@H](CCC(N)=O)NC(=O)[C@H](C(C)C)NC(=O)[C@H](CC2CCCCC2)NC(=O)[C@H](CCN)NC1=O [Example 5204] ({CH2CO}-[Ala(morpholin-4-yl)][Phe(4-COOH)]D[Phe(3-CF3)][hPhe][Bip][Phe(4-COOH)][NMeA][dL][Dab][Cha]VQC[Dab]-NH2; thioether N-14)
8 | 0.0038 | CC(C)C[C@H]1NC(=O)[C@H](C)N(C)C(=O)[C@H](Cc2ccc(C(N)=O)cc2)NC(=O)[C@H](Cc2ccc(-c3ccccc3)cc2)NC(=O)[C@H](Cc2ccc(C(=O)O)cc2)NC(=O)[C@H](Cc2cccc(C(F)(F)F)c2)NC(=O)[C@H](CC(=O)O)NC(=O)[C@H](Cc2ccc(C(=O)O)cc2)NC(=O)[C@H]([C@H](C)N)NC(=O)CSC[C@@H](C(=O)N[C@@H](CCN)C(N)=O)NC(=O)[C@H](CO)NC(=O)[C@H](C(C)(C)O)NC(=O)[C@H](CC2CCCCC2)NC(=O)[C@H](CCN)NC1=O [Example 5208] ({CH2CO}-[Abu(3S-NH2)][Phe(4-COOH)]D[Phe(3-CF3)][Phe(4-COOH)][Bip][Phe(4-CONH2)][NMeA][dL][Dab][Cha][Val(3-OH)]SC[Dab]-NH2; thioether N-14)
9 | 0.001 | CC(C)C[C@H]1NC(=O)[C@H](C)N(C)C(=O)[C@H](CCC(N)=O)NC(=O)[C@H](Cc2ccc(-c3ccccc3)cc2)NC(=O)[C@H](CCc2ccccc2)NC(=O)[C@H](Cc2cccc(C(F)(F)F)c2)NC(=O)[C@H](CC(=O)O)NC(=O)[C@H](Cc2ccc(OCC(=O)O)cc2)NC(=O)[C@H]([C@@H](C)N)NC(=O)CSC[C@@H](C(=O)N[C@@H](CCN)C(N)=O)NC(=O)[C@H](CCC(=O)O)NC(=O)[C@H](C(C)C)NC(=O)[C@H](CC2CCCCC2)NC(=O)[C@H](CCN)NC1=O [Example 5215] ({CH2CO}-[Abu(3R-NH2)]Y(Carboxymethyl)D[Phe(3-CF3)][hPhe][Bip]Q[NMeA][dL][Dab][Cha]VEC[Dab]-NH2; thioether N-14)
